{"source": "paper PMC3913652", "about": "(PLoS ONE, 2014)", "key": {"[1]": {"molecular_target": "T1, rat GLP-1 receptor (Rattus norvegicus, UniProt P32301)", "T1 construct": "6–23 clone 6 cells endogenously expressing the rat GLP-1 receptor; endogenous in cells; host or cells: 6-23 clone 6 cells", "T1 sequence (P32301 22-463)": "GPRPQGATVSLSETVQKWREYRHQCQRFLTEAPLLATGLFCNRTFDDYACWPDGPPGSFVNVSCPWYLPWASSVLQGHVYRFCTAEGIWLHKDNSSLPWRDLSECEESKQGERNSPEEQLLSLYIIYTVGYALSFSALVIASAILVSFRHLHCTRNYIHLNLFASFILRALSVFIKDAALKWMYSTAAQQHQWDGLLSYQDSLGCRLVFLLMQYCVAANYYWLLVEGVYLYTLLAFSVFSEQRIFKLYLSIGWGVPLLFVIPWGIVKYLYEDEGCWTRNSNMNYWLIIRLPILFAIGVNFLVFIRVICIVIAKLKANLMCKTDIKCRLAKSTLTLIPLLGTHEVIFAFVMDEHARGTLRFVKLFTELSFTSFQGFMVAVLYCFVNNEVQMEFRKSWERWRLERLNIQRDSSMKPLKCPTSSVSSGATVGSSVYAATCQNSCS", "test": "GLP-1 receptor functional assay (cAMP)", "format": "cell-based", "settings": "6–23 clone 6 cells, HBSS 0.1% BSA, 250 µM IBMX, 30 minutes, quadruplicates", "procedure": "Following 30 minutes incubation, the cAMP was measured using the cAMP Dynamic 2 assay (Cisbio US, Bedford, MA) as per the manufacturer’s instructions. cAMP was detected by a decrease in time-resolved fluorescence energy transfer using a GeniousPro plate reader (Tecan US, San Jose, CA).\nResults are presented as means ± SEM, graphed and analyzed using GraphPad Prism 5®. The potency of peptides in the in vitro functional assay and in an OGTT was determined by the analysis of concentration-response curves using non-linear regression analysis."}, "[2]": {"test": "Stability in pancreatic digestive enzyme mix", "format": "in vitro ADME", "settings": "50 mM phosphate buffer pH 6.8, peptide 30 mM, 20:1 peptide to pancreatic mixture, 37°C, reverse-phase HPLC, AUC 0–2 h as % remaining vs stable control ± SEM, n = 3 (exenatide, [Leu^14]exenatide-ABP n = 2)", "procedure": "Stability of peptides was also assessed in a mixture of amylase, lipase and protease (pancreatin, Cat.# P7545-25 g, Sigma-Aldrich, St. Louis, MO), which are digestive enzymes produced by pancreatic exocrine cells. Peptides (30 mM) in 50 mM phosphate buffer (pH 6.8) and citrate buffers (pH 4 & pH 5) were incubated for 2 hours in pancreatic mixture at 37°C (20∶1 ratio of peptide to pancreatic mixture) (n = 3). The enzymatic reaction was stopped with the addition of 0.2 N HCl (final concentration of peptide 10 mM) at each time point."}}, "data": [{"molecule": "CC[C@H](C)[C@H](NC(=O)[C@H](Cc1c[nH]cn1)NC(=O)[C@H](CC(C)C)NC(=O)[C@H](CCCCN)NC(=O)[C@H](CC(C)C)NC(=O)[C@H](C)NC(=O)[C@H](CCC(=O)O)NC(=O)[C@@H](NC(=O)CNC(=O)[C@H](CCC(=O)O)NC(=O)[C@@H](NC(=O)[C@@H](NC(=O)[C@H](CCCCN)NC(=O)[C@H](C)NC(=O)[C@H](CCCCN)NC(=O)[C@H](CC(N)=O)NC(=O)[C@@H](NC(=O)[C@H](CC(C)C)NC(=O)[C@H](CCCNC(=N)N)NC(=O)[C@H](CCCCN)NC(=O)[C@H](Cc1ccc(O)cc1)NC(=O)[C@H](Cc1ccccc1)NC(=O)[C@H](CC(=O)O)NC(=O)[C@H](CO)NC(=O)[C@@H](NC(=O)CNC(=O)[C@H](Cc1ccc(O)cc1)NC(=O)[C@H](CCCCN)NC(=O)[C@H](CC(=O)O)NC(=O)[C@H](CC(C)C)NC(=O)[C@H](CCC(=O)O)NC(=O)[C@H](CCCNC(=N)N)NC(=O)[C@H](CC(N)=O)NC(=O)[C@H](C)NC(=O)[C@H](CC(C)C)NC(=O)[C@@H](NC(=O)[C@H](CCCCN)NC(=O)[C@H](C)NC(=O)[C@H](CCC(=O)O)NC(=O)[C@H](C)NC(=O)[C@@H](N)CC(C)C)C(C)C)C(C)C)[C@@H](C)CC)[C@@H](C)O)C(C)C)C(C)C)C(=O)N[C@@H](CC(C)C)C(=O)N[C@@H](C)C(=O)N[C@@H](C)C(=O)N[C@@H](CC(C)C)C(=O)N1CCC[C@H]1C(=O)O", "note": "[ABD035]", "values": [{"measurement": "GLP-1 Receptor Functional Assay EC50", "setting": "[1]", "value": "not active"}, {"measurement": "2 h Stability in Pancreatin Mix (%) pH 6.8", "setting": "[2]", "value": "10±2", "unit": "%"}]}]}
